The results in this text go back to patent publication EP0326066A2, “Condensed diazepinones, process for their preparation and medicaments containing them” (Dr. Karl Thomae GmbH, priority 1988, dated 1989).

In assay [1] the target is T1, muscarinischen Rezeptoren (Gesamtherz) (Rattus norvegicus, UniProt P10980).
T1 construct: Das Gesamtherz wurde mit einer Schere zerkleinert; from tissue; host or cells: rat whole heart homogenate
T1 sequence (P10980 1-466): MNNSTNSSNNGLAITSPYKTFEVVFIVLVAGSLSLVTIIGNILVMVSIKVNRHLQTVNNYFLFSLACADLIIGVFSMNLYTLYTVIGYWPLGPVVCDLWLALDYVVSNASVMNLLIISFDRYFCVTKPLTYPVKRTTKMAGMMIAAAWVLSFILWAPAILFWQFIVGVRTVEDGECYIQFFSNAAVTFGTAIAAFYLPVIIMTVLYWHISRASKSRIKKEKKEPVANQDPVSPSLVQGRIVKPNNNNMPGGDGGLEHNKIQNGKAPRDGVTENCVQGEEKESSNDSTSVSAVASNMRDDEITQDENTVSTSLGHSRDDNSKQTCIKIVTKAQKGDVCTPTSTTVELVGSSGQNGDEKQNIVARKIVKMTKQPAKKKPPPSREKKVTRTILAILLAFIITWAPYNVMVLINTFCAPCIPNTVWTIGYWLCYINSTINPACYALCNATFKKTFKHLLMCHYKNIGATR
The experiment in a line: Receptor binding test, ³H-NMS displacement, whole heart homogenate. Details: species or system Sprague-Dawley-Ratten. The conditions noted are these: 0,3 n molar ³H-NMS, 30°C, 45 min, read-out: Rezeptor-Bindungs-Tests IC₅₀ Herz. How it is done: (§1) Das Gesamtherz wurde […] Organe wurden abschließend in einem Potter homogenisiert. […] Die Inkubation der Organhomogenate erfolgte bei einer bestimmten Konzentration des Radioliganden und […] Testsubstanzen im Eppendorf-Zentrifugenröhrchen bei 30°C. Die Inkubationsdauer betrug 45 Minuten. Als Radioligand wurde 0,3 n molar 3H-N-Methylscopolamin (3H-NMS) verwendet. Die Inkubation wurde durch Zugabe von […] Puffer mit nachfolgender Vakuumfiltration beendet. Die Filter […] Puffer gespült und […] Summe von spezifischer und unspezifischer Bindung von 3H-NMS. Der Anteil der unspezifischen Bindung wurde definiert als jene Radioaktivität, die in Anwesenheit von 1 μ molar Quinuclidinylbenzilat gebunden wurde. […]. Die IC50-Werte der nicht-markierten Testsubstanzen […] jene Konzentration der Testsubstanz, bei welcher die spezifische Bindung von 3H-NMS an die muscarinischen Rezeptoren in den verschiedenen Organen um 50 % gehemmt wurde. Die Ergebnisse sind aus der Tabelle 1 zu […].

For another assay, the system named is Blase. The experiment in a line: Inhibition of the acetylcholine effect on bladder of the guinea pig. It counts as in vivo, Meerschweinchen. The settings on record: anaesthetised guinea pig; 10 µg/kg acetylcholine 5 min after test substance; contraction of exposed urinary bladder. As for the experimental part:
(§2) Am narkotisierten Meerschweinchen wurden 5 Minuten nach Gabe der Prüfsubstanz 10 µg/kg Acetylcholin intravenös als auch gleichzeitig intraarteriell injiziert. Dabei wurde die Herzfrequenz durch extrakorporale Ableitung des EKG, der Ausatemwiderstand nach Konzett-Rößler und die Kontraktion der freigelegten Harnblase direkt registriert. Für die Hemmung der Acetylcholinwirkung an den untersuchten Organen wurden Dosis-Wirkungskurven aufgenommen und daraus -log ED₅₀-Werte bestimmt. Ergebnisse siehe Tabelle III.

Another assay relates to vagale Bradykardie (M₂). As to the kind of experiment: M1/M2 selectivity in the rat: inhibition of bradycardia evoked by vagus stimulation. It counts as in vivo, THOM-Ratten. The settings on record: i.v., dose reducing vagal bradycardia (M₂) by 50%, 5 min after injection. How it is done:
(§3) Die angewandte Methode wurde von Hammer und Giachetti (Life Sciences 31, 2991-2998 (1982)) beschrieben. 5 Minuten nach intravenöser Injektion steigender Dosen der Substanz wurden entweder der rechte Vagus elektrisch stimuliert (Frequenz: 25 Hz; Pulsbreite: 2ms; Reizdauer: 30s; Voltzahl: supramaximal) oder 0,3 mg/kg McN-A-343 in männliche THOM-Ratten intravenös injiziert. Die durch Vagusstimulation hervorgerufene Bradykardie und der durch McN-A-343 verursachte Blutdruckanstieg wurden bestimmt. Die Dosis der Substanzen, die entweder die vagale Bradykardie (M₂) oder den Blutdruckanstieg (M₁) um 50% verminderte, wurde graphisch ermittelt. Ergebnisse siehe Tabelle II.

For another assay, the system named is Speichelsekretion. As to the kind of experiment: Inhibition of pilocarpine-induced salivation in the rat. It counts as in vivo, THOM-Ratten. The conditions noted are these: urethane-anaesthetised rat, i.v.; dose reducing saliva volume by 50%; 2 mg/kg pilocarpine s.c. As for the experimental part:
Nach Lavy und Mulder (Arch. int. Pharmacodyn. 178, 437-445, (1969)) erhielten mit 1,2 g/kg Urethan narkotisierte männliche THOM-Ratten steigende Dosen der Substanz i.v.. Die Speichelsekretion wurde durch s.c. Gabe von 2 mg/kg Pilocarpin ausgelöst. Der Speichel wurde mit Fließpapier aufgesaugt, die von ihm eingenommene Fläche alle 5 Minuten planimetrisch bestimmt. Die Dosis der Substanz, die das Speichelvolumen um 50% verminderte, wurde graphisch ermittelt.

The next assay relates to Blutdruckanstieg (M₁). As to the kind of experiment: M1/M2 selectivity in the rat: inhibition of blood pressure rise caused by McN-A-343. It counts as in vivo, THOM-Ratten. The settings on record: i.v., dose reducing blood pressure rise (M₁) caused by 0,3 mg/kg McN-A-343 by 50%. As for the experimental part:
as §3

For assay [2], the target named is muscarinischen Rezeptoren (Großhirnrinde). The experiment in a line: Receptor binding test, ³H-NMS displacement, cerebral cortex homogenate. The settings on record: rat cerebral cortex homogenate; 0,3 n molar ³H-NMS; 30°C, 45 min; read-out: Rezeptor-Bindungs-Tests IC₅₀ Cortex. Also on record: species or system Sprague-Dawley-Ratten. How it is done:
as §1

In a further assay the test system is Herzfrequenz. As to the kind of experiment: Inhibition of the acetylcholine effect on heart rate of the guinea pig. The settings on record: anaesthetised guinea pig; 10 µg/kg acetylcholine 5 min after test substance; heart rate (ECG). The assay is classed as in vivo, Meerschweinchen. How it is done: as §2
Another assay concerns Bronchien. As to the kind of experiment: Inhibition of the acetylcholine effect on bronchi of the guinea pig. The settings on record: anaesthetised guinea pig; 10 µg/kg acetylcholine 5 min after test substance; expiratory resistance (Konzett-Rößler). The assay is classed as in vivo, Meerschweinchen. As for the experimental part:
Am narkotisierten Meerschweinchen wurden 5 Minuten nach Gabe der Prüfsubstanz 10 µg/kg Acetylcholin intravenös als auch gleichzeitig intraarteriell injiziert. Dabei wurde die Herzfrequenz durch extrakorporale Ableitung des EKG, der Ausatemwiderstand nach Konzett-Rößler und die Kontraktion der freigelegten Harnblase direkt registriert. Für die Hemmung der Acetylcholinwirkung an den untersuchten Organen wurden Dosis-Wirkungskurven aufgenommen und daraus -log ED₅₀-Werte bestimmt.

`O=C1Nc2cccnc2N(C(=O)CCCCCN2CCCCC2)c2ccccc21` [A, 5,11-Dihydro-11-[6-(1-piperidinyl)-1-oxohexyl]-6H-pyrido[2,3-b][1,4]benzodiazepin-6-on]: the figures for the IC50 in assay [1] and in assay [2] were 10 nM and 60 nM, respectively. The “-log ED₅₀ Blase” value with Blase turned out to be 6.20 Molkg⁻¹. Further, the “-log ED₅₀ Herz” value with vagale Bradykardie (M₂) came out at 7.75 Mkg⁻¹; in the assay on Herzfrequenz, 6.88 Molkg⁻¹. Also, the “-log ED₅₀ Salivation” value in the assay with Speichelsekretion amounted to 6.65 Mkg⁻¹. Besides, in the assay on Blutdruckanstieg (M₁), the “-log ED₅₀ Blutdruck” value worked out at 6.42 Mkg⁻¹. Further, in the assay with Bronchien, the “-log ED₅₀ Bronchien” value worked out at 7.49 Molkg⁻¹.
As to `CCN(CC)CC1CCCCN1CC(=O)N1c2ccccc2C(=O)Nc2cccnc21` (stereo not drawn) [B, 11-[[2-[(Diethylamino)methyl]-1-piperidinyl]acetyl]-5,11-dihydro-6H-pyrido[2,3-b][1,4]benzodiazepin-6-on], the IC50 in assay [1] came to 140 nM; in assay [2], 1200 nM. Moreover, the “-log ED₅₀ Blase” value in the assay on Blase stood at 4.73 Molkg⁻¹. The “-log ED₅₀ Herz” value with vagale Bradykardie (M₂) came to 6.42 Mkg⁻¹; in the assay with Herzfrequenz, 5.84 Molkg⁻¹. Besides, the “-log ED₅₀ Salivation” value in the assay with Speichelsekretion is on record as 5.00 Mkg⁻¹. For the same molecule, in the assay with Blutdruckanstieg (M₁), the “-log ED₅₀ Blutdruck” value was determined as 5.63 Mkg⁻¹. In the assay on Bronchien, the “-log ED₅₀ Bronchien” value turned out to be 5.58 Molkg⁻¹.
For `CN1CCN(CC(=O)N2c3ccccc3C(=O)Nc3cccnc32)CC1` [C, 5,11-Dihydro-11-[(4-methyl-1-piperazinyl)acetyl]-6H-pyrido[2,3-b][1,4]benzodiazepin-6-on], the “-log ED₅₀ Blase” value with Blase was 5.36 Molkg⁻¹. Besides, the “-log ED₅₀ Salivation” value in the assay with Speichelsekretion came out at 6.22 Mkg⁻¹. Besides, the “-log ED₅₀ Herz” value in the assay with Herzfrequenz is 5.85 Molkg⁻¹. In addition, in the assay with Bronchien, the “-log ED₅₀ Bronchien” value is on record as 6.57 Molkg⁻¹.
On to `CN1[C@@H]2CC[C@H]1C[C@@H](OC(=O)C(CO)c1ccccc1)C2` (stereo partly drawn) [D, Atropin], for which the “-log ED₅₀ Blase” value with Blase is recorded as 7.03 Molkg⁻¹. Moreover, the “-log ED₅₀ Herz” value was 7.94 Mkg⁻¹ in the assay with vagale Bradykardie (M₂) and 7.70 Molkg⁻¹ in the assay with Herzfrequenz. Besides, the “-log ED₅₀ Blutdruck” value in the assay on Blutdruckanstieg (M₁) came to 7.34 Mkg⁻¹.
